In the oligonucleotide strings, read from the 5' end, every base follows the letter of its sugar. An asterisk marks phosphorothioate; unmarked linkages are phosphodiester. Other units and linkages are bracketed, terminal groups are in braces. A string of capitals states the bases alone. e = 2'-O-(2-methoxyethyl) (MOE); [5mC] = 5-methylcytosine
Test system: mir-21 pri-miRNA
Experiment: mir-21 pri-miRNA expression in HeLa cells (real-time RT-PCR)
Type: cell-based, human
Conditions: HeLa cells, 100 nM, real-time RT-PCR

327917 (antisense eT*e[5mC]*eA*eA*e[5mC]*eA*eT*e[5mC]*eA*eG*eT*e[5mC]*eT*eG*eA*eT*eA*eA*eG*e[5mC]*eT*eA) [compound 327917]
mir-21 pri-miRNA expression % UTC: 249 % UTC
